Assays:
Format in all cases: in vivo
sorghum = assay: Herbicidal activity test against upland field weeds (foliar treatment test); conditions: Sorghum, scale 0-100; for plant injury at 50 g/ha: 50 g ai/ha
In short: (§1)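 Greenhouse-grown plants (30±5 °C, 14/10 h light/dark) foliar hand-sprayed with compound in 50% acetone, 0.1% Tween-20 at 50 or 75 g a.i./ha. Control visually scored 0 (none) to 100 (complete) versus untreated after 14 days, or 21 days if needed.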

bindweed = assay: as above; conditions: scale 0-100; for pest or weed control at 50 g/ha: 50 g ai/ha
In short: as §1

quack grass = assay: as above; set-up: key to Foliar treatment herbicidal activity, quack grass: 0 (no control); 100 (complete control); conditions: scale 0-100
In short: as §1

cotton = assay: Phytotoxicity test for field crops (soil treatment test); set-up: key: 0 (no harm); 9 (complete withered)
In short: (§2)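 Crops sown in fertilized sterile soil (pH 6.1; clay 21%, silt 17%, sand 52%); soil spray 1 d later, 19˜300 g a.i./ha, 100 ml/m^2; greenhouse 30±5° C, 14/10 h; visual phytotoxicity 0–9 at 10 and 20 DAT vs untreated.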

wheat = assay: as above; set-up: key: 0 (no harm); 9 (complete withered)
In short: as §2

rice = assay: as above; set-up: key: 0 (no harm); 9 (complete withered)
In short: as §2

corn = assay: as above; set-up: key: 0 (no harm); 9 (complete withered)
In short: as §2

soybean = assay: as above; set-up: key: 0 (no harm); 9 (complete withered)
In short: as §2

indian jointvetch = assay: Herbicidal activity test against upland field weeds (foliar treatment test); conditions: scale 0-100; for pest or weed control at 50 g/ha: 50 g ai/ha
In short: as §1

barnyard grass = assay: Herbicidal activity test against upland field weeds (soil treatment test); set-up: key to Soil treatment herbicidal activity, barnyard grass: 0 (no control); 100 (complete control); conditions: scale 0 (no control) to 100 (complete control)
In short: (§3)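 Pre-emergence soil surface spray, day after sowing, into sandy loam pots with fertilizer; compounds at 50 or 75 g a.i./ha in 50% acetone, 0.1% Tween-20. Greenhouse at 30±5 °C, 14/10 h light/dark; visual control rated 0–100 against untreated after 14 days (21 if needed).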

cocklebur [1] = assay: as above; set-up: key to Soil treatment herbicidal activity, Cocklebur: 0 (no control); 100 (complete control); conditions: scale 0 (no control) to 100 (complete control); for Soil treatment herbicidal activity, Cocklebur: 50 g ai/ha
In short: as §3

velvetleaf [2] = assay: as above; set-up: key to Soil treatment herbicidal activity, velvet leaf: 0 (no control); 100 (complete control); conditions: scale 0 (no control) to 100 (complete control)
In short: as §3

cocklebur [3] = assay: Herbicidal activity test against upland field weeds (foliar treatment test); set-up: key to Foliar treatment herbicidal activity, Cocklebur: 0 (no control); 100 (complete control); conditions: scale 0-100
In short: as §1

velvetleaf [4] = assay: as above; conditions: Abutilon theophrasti, scale 0-100, read-out: Foliar treatment herbicidal activity, velvet leaf; for pest or weed control at 50 g/ha: 50 g ai/ha
In short: as §1

[5] = 50 g ai/ha, Cotton (10 days after treatment)
[6] = 50 g ai/ha, Cotton (20 days after treatment)
[7] = 100 g ai/ha, Cotton (10 days after treatment)
[8] = 100 g ai/ha, Cotton (20 days after treatment)
[9] = 50 g ai/ha, Wheat (10 days after treatment)
[10] = 50 g ai/ha, Wheat (20 days after treatment)
[11] = 100 g ai/ha, Wheat (10 days after treatment)
[12] = 100 g ai/ha, Wheat (20 days after treatment)
[13] = 50 g ai/ha, Rice (10 days after treatment)
[14] = 50 g ai/ha, Rice (20 days after treatment)
[15] = 100 g ai/ha, Rice (10 days after treatment)
[16] = 100 g ai/ha, Rice (20 days after treatment)
[17] = 50 g ai/ha, Corn (10 days after treatment)
[18] = 50 g ai/ha, Corn (20 days after treatment)
[19] = 100 g ai/ha, Corn (10 days after treatment)
[20] = 100 g ai/ha, Corn (20 days after treatment)
[21] = 50 g ai/ha, Soybean (10 days after treatment)
[22] = 50 g ai/ha, Soybean (20 days after treatment)
[23] = 100 g ai/ha, Soybean (10 days after treatment)
[24] = 100 g ai/ha, Soybean (20 days after treatment)
[25] = Xanthium strumarium, 75 g ai/ha
[26] = Xanthium strumarium, 50 g ai/ha

SMILES | Soil treatment phytotoxicity, Cotton (cotton; [5]) | Soil treatment phytotoxicity, Cotton (cotton; [6]) | Soil treatment phytotoxicity, Cotton (cotton; [7]) | Soil treatment phytotoxicity, Cotton (cotton; [8]) | Soil treatment phytotoxicity, Wheat (wheat; [9]) | Soil treatment phytotoxicity, Wheat (wheat; [10]) | Soil treatment phytotoxicity, Wheat (wheat; [11]) | Soil treatment phytotoxicity, Wheat (wheat; [12]) | Soil treatment phytotoxicity, Rice (rice; [13]) | Soil treatment phytotoxicity, Rice (rice; [14]) | Soil treatment phytotoxicity, Rice (rice; [15]) | Soil treatment phytotoxicity, Rice (rice; [16]) | Soil treatment phytotoxicity, Corn (corn; [17]) | Soil treatment phytotoxicity, Corn (corn; [18]) | Soil treatment phytotoxicity, Corn (corn; [19]) | Soil treatment phytotoxicity, Corn (corn; [20]) | Soil treatment phytotoxicity, Soybean (soybean; [21]) | Soil treatment phytotoxicity, Soybean (soybean; [22]) | Soil treatment phytotoxicity, Soybean (soybean; [23]) | Soil treatment phytotoxicity, Soybean (soybean; [24]) | also measured
CN(Cc1nnn(C)n1)c1nc(C(F)(F)F)ccc1C(=O)Nc1nnnn1C [Compound No. 2-26, 2-(methyl((2-methyl-2H-tetrazol-5-yl)methyl)amino)-N-(1-methyl-1H-tetrazol-5-yl)-6-(trifluoromethyl)nicotinamide] | 1 | 4 | 1 | 4 | 0 | 0 | 0 | 0 | 3 | 9 | 6 | 9 | 0 | 0 | 0 | 0 | 6 | 4 | 7 | 7 | plant injury at 75 g/ha (sorghum; 75 g ai/ha): 10%; pest or weed control at 75 g/ha (bindweed; 75 g ai/ha): 95%; Foliar treatment herbicidal activity, quack grass (quack grass; 75 g ai/ha): 0; pest or weed control at 75 g/ha (indian jointvetch; 75 g ai/ha): 90%; Soil treatment herbicidal activity, barnyard grass (barnyard grass; 75 g ai/ha): 100; pest or weed control at 75 g/ha (cocklebur [1]; [25]): 98%; Soil treatment herbicidal activity, velvet leaf (velvetleaf [2]; 75 g ai/ha): 100; pest or weed control at 75 g/ha (cocklebur [3]; [25]): 98%; pest or weed control at 75 g/ha (velvetleaf [4]; 75 g ai/ha): 98%
Cn1ncnc1COc1nc(C(F)(F)F)ccc1C(=O)Nc1nnnn1C [Compound No. 1-45, 2-((1-methyl-1H-1,2,4-triazol-5-yl)methoxy)-N-(1-methyl-1H-tetrazol-5-yl)-6-(trifluoromethyl)nicotinamide] | 1 | 4 | 3 | 5 | 0 | 0 | 0 | 0 | 9 | 9 | 9 | 9 | 0 | 0 | 1 | 0 | 0 | 0 | 0 | 0 | plant injury at 50 g/ha (sorghum): 50%; pest or weed control at 50 g/ha (bindweed): 98%; pest or weed control at 50 g/ha (quack grass; 50 g ai/ha): 40%; pest or weed control at 50 g/ha (indian jointvetch): 70%; pest or weed control at 50 g/ha (barnyard grass; Echinochloa crus-galli, 50 g ai/ha): 98%; Soil treatment herbicidal activity, Cocklebur (cocklebur [1]): 0; Soil treatment herbicidal activity, velvet leaf (velvetleaf [2]; 50 g ai/ha): 100; pest or weed control at 50 g/ha (cocklebur [3]; [26]): 95%; pest or weed control at 50 g/ha (velvetleaf [4]): 80%
Cn1nnnc1NC(=O)c1ccc(C(F)(F)F)nc1OCc1nnnn1C(F)F [Compound No. 1-26, 2-((1-(difluoromethyl)-1H-tetrazol-5-yl)methoxy)-N-(1-methyl-1H-tetrazol-5-yl)-6-(trifluoromethyl)nicotinamide] | 1 | 0 | 1 | 1 | 0 | 0 | 0 | 0 | 1 | 8 | 3 | 9 | 0 | 0 | 1 | 1 | 0 | – | 0 | 4 | plant injury at 50 g/ha (sorghum): 70%; pest or weed control at 50 g/ha (bindweed): 60%; Foliar treatment herbicidal activity, quack grass (quack grass; 50 g ai/ha): 0; pest or weed control at 50 g/ha (indian jointvetch): 70%; Soil treatment herbicidal activity, barnyard grass (barnyard grass; 50 g ai/ha): 100; Soil treatment herbicidal activity, Cocklebur (cocklebur [1]): 0; Soil treatment herbicidal activity, velvet leaf (velvetleaf [2]; 50 g ai/ha): 100; pest or weed control at 50 g/ha (cocklebur [3]; [26]): 70%; pest or weed control at 50 g/ha (velvetleaf [4]): 50%
Cn1nnc(CSCc2nc(C(F)(F)F)ccc2C(=O)N(C(=O)c2ccccc2)c2nnnn2C)n1 [Compound No. 2-109, N-benzoyl-N-(1-methyl-1H-tetrazol-5-yl)-2-((((2-methyl-2H-tetrazol-5-yl)methyl)thio)methyl)-6-(trifluoromethyl)nicotinamide] | 0 | 0 | 0 | 1 | 0 | 0 | 0 | 0 | 0 | 0 | 0 | 0 | 0 | 0 | 1 | 0 | – | 1 | – | 0 | plant injury at 50 g/ha (sorghum): 80%; pest or weed control at 50 g/ha (bindweed): 98%; Foliar treatment herbicidal activity, quack grass (quack grass; 50 g ai/ha): 0; pest or weed control at 50 g/ha (indian jointvetch): 98%; Soil treatment herbicidal activity, barnyard grass (barnyard grass; 50 g ai/ha): 0; Soil treatment herbicidal activity, Cocklebur (cocklebur [1]): 0; Soil treatment herbicidal activity, velvet leaf (velvetleaf [2]; 50 g ai/ha): 100; Foliar treatment herbicidal activity, Cocklebur (cocklebur [3]; 50 g ai/ha): 100; pest or weed control at 50 g/ha (velvetleaf [4]): 80%
Cn1nnc(COCc2nc(C(F)(F)C(F)(F)F)ccc2C(=O)Nc2nnnn2C)n1 [Compound No. 2-81, N-(1-methyl-1H-tetrazol-5-yl)-2-(((2-methyl-2H-tetrazol-5-yl)methoxy)methyl)-6-(perfluoroethyl)nicotinamide] | 0 | 4 | 1 | 6 | 0 | 0 | 0 | 0 | 6 | 7 | 8 | 8 | 0 | 0 | 1 | 0 | 0 | 0 | 0 | 0 | plant injury at 50 g/ha (sorghum): 40%; pest or weed control at 50 g/ha (bindweed): 60%; Foliar treatment herbicidal activity, quack grass (quack grass; 50 g ai/ha): 0; pest or weed control at 50 g/ha (indian jointvetch): 80%; Soil treatment herbicidal activity, barnyard grass (barnyard grass; 50 g ai/ha): 100; Soil treatment herbicidal activity, Cocklebur (cocklebur [1]): 100; Soil treatment herbicidal activity, velvet leaf (velvetleaf [2]; 50 g ai/ha): 100; pest or weed control at 50 g/ha (cocklebur [3]; [26]): 95%; pest or weed control at 50 g/ha (velvetleaf [4]): 90%
